Source: patent US9683014B2, “Dipeptide mimetics of NGF and BDNF neurotrophins” (UCHREZHDENIE ROSSIISKOI AKADEMII MEDITSYNSKIKH NAUK …, priority 2009, dated 2017)

What was measured:
HT-22 cells = tested on: HT-22 cells
Procedure: The determination of cell viability was carried out by MTT test. MTT is a water soluble tetrazolium salt of yellow color which readily permeates cells. In living cells, MTT is converted into water insoluble formazan crystals of violet color. At the end of an experiment the growth medium was replaced with an MTT solution (0.5 mg/ml) and incubated for 30 min at 37° C. and 5% CO2. The MTT solution was then removed from the wells and DMSO was added to dissolve the formazan precipitate. Then the optical density was measured using a Multiscan (Thermo) spectrophotometer at a wavelength of 600 nm.

PC12 cell line = experiment: Cellular model of Parkinson's disease (MPTP, MTT test); assay type: cell-based, rat
Procedure: To produce a model for Parkinson's disease, MPTP was used at a final concentration of 1 mM (Shimoke K., Chiba H. Nerve growth factor prevents 1-methyl-[…]-1,2,3,6-tetrahydropyridine-induced cell death via the Akt pathway by suppressing caspase-3-like activity using PC12 cells: relevance to therapeutic application for Parkinson's disease. J. Neurosci. Res. 2001, 63, 402-409). MPTP was added to the cell growth medium containing 1% FBS at 24 hours after passage. The peptides were added to the cell growth medium concurrently with MPTP or 24 h before MPTP. Cell viability was determined at 24 h using an MTT test.

rats = conditions: 1.0 mg/kg i.p. 24 h prior to apomorphine (pretreatment); FIG. 2.10
Procedure: The control group was treated with distilled water according to the same regimen.

NCCCC[C@H](NC(=O)[C@H](CCC(=O)O)NC(=O)CCC(=O)O)C(=O)NCCCCCCNC(=O)[C@H](CCCCN)NC(=O)[C@H](CCC(=O)O)NC(=O)CCC(=O)O [GK-2, bis-(N-monosuccinyl-glutamyl-lysine) hexamethylenediamide]
Optical density (MTT) (HT-22 cells; 10^−8M, 24 h prior to glutamate, control 0.178 ± 0.010, glutamate 0.145 ± 0.013): 0.179 ± 0.007^
protective effect against glutamate cytotoxicity (HT-22 cells; added 24 hours prior to glutamate): protective effect
protective effect against MPTP (PC12 cell line; added 24 hours prior to MPTP 1 mM): active at both 10^−5 M and 10^−8 M
protective effect against MPTP (PC12 cell line; added concurrently with MPTP 1 mM, 10^−5 M and 10^−8 M tested): only at 10^−5 M
intensity of apomorphine-induced oral stereotypy (rats): enhanced the intensity
